Test system: GCGR ECD
Experiment: TIRF-based smFRET of GCGR ECD dynamics in the presence of ligands
Set-up: species or system human
Details: for smFRET histogram peak location (FRET efficiency), green peak / smFRET histogram peak location (FRET efficiency), red peak: 64 molecules (glucagon), 86 (MK0893)
From the text: We used smFRET to examine the conformational behavior of the GCGR ECD. smFRET is a well-established technique for studying the conformational dynamics of biomolecules at the single molecule level ([38], [39]), as it is sensitive to changes in distances in vitro and in cells ([40]). First, we specifically expressed and purified a GCGR with two surface-exposed cysteines at positions 49 (Cys49) of the ECD and 287 (Cys287) of the extracellular side of helix IV (Fig. S4B). These two cysteines were site-specifically labeled with a FRET donor (Alexa Fluor 555) and a FRET acceptor (Alexa Fluor 647). The efficiency of energy transfer will report the proximity between the donor and acceptor fluorophores and any changes in that distance ([41], [42]). To view receptors under smFRET, the doubly labeled GCGR was surface-immobilized on a PEG-passivated quartz microscope slide using a biotin–streptavidin interaction, as shown in Figure 1A. A biotinylated anti-FLAG antibody was used to capture the FLAG-tagged GCGR (Fig. 1A). A 532 nm laser was used to excite the donor fluorophore by creating the evanescent field from the total internal reflection of the laser beam (Fig. 1A). The emission signals from the donor and acceptor fluorophores were detected by an electron-multiplied back-illuminated CCD camera. […] A control experiment was performed to test the specific immobilization of GCGR–micelle using a biotinylated antibody to a PEG-passivated quartz surface (Fig. S5A). […] Single-molecule fluorescence time trajectories were assessed and analyzed using custom software written in MATLAB.
Single-molecule fluorescence data were recorded using a customized prism-based total internal reflection fluorescence imaging system based on an inverted IX73 microscope (Olympus) equipped with a X60 objective (Olympus, 1.49 numerical aperture, water) as described in earlier publications ([47], [48], [49]). Quartz microscope slides (G. Finkenbeiner) and coverslips (Fisher Scientific #1254588) were cleaned and passivated with polyethylene glycol (m-PEG-SVA) and 3% (w/w) biotin-PEG-SVA (Laysan Bio) to prevent nonspecific protein adsorption, as previously described ([30]). A sample chamber was prepared using double-sided tape (Scotch) on PEGylated slides and coverslips ([48]). The sample chamber was first coated with 0.02 mg/ml NeutrAvidin (ThermoFisher Scientific #PI31000) and washed with T50 buffer (10 mM Tris, pH 7.4, 50 mM NaCl). A […] biotin-conjugated anti-FLAG antibody (GenScript #A01429) was injected and incubated for 20 min, followed by washing with the imaging buffer (25 mM HEPES pH 7.5, 150 mM NaCl, 2 mM Trolox, 0.05% DDM, 0.01% CHS) to remove unbound biotinylated anti-FLAG antibody. The GCGR sample was diluted in an imaging buffer, introduced into the sample chamber, and incubated for 30 min. The sample chamber was washed extensively with an imaging buffer to remove any unbound receptors. Finally, an oxygen scavenging system, 5 mM protocatechuic acid (Sigma #37580), and 3 U/ml protocatechuate-3,4-dioxygenase (Oriental Yeast) ([50]) in the imaging buffer were applied before total internal reflection fluorescence illumination. The sample was excited at […] (CrystaLaser), and emission intensities from both donor and acceptor fluorophores were collected on an EMCCD camera (Andor Technology) with 100 ms integration time using a custom single-molecule data acquisition program ([48]). All single-molecule measurements were performed at room temperature. Single-molecule time trajectories were extracted using scripts written in IDL software (Harris Geospatial Solutions, Inc).

[1] = GCGR labeled Alexa Fluor 555/647 at Cys49 and Cys287, DDM-CHS micelle, room temperature, Gaussian fit
[2] = Gaussian fit of smFRET histogram, ligand-bound GCGR
[3] = calculated from peak centre with Förster equation, R0 51 Å, glucagon-bound GCGR

Row | Compound | smFRET histogram peak location (FRET efficiency), green peak [1] | smFRET histogram peak location (FRET efficiency), red peak [1] | smFRET histogram peak width, green peak [2] | smFRET histogram peak width, red peak [2] | smFRET histogram relative peak area, green peak [2] | smFRET histogram relative peak area, red peak [2] | effect on the FRET distribution relative to apo-GCGR (saturating concentration of antagonist, histogram from 86 molecules) | smFRET histogram peak location (FRET efficiency), blue peak (GCGR labeled Alexa Fluor 555/647 at Cys49 and Cys287, DDM-CHS micelle, room temperature, Gaussian fit, 64 molecules) | smFRET histogram peak width, blue peak [2] | smFRET histogram relative peak area, blue peak [2] | calculated distance, 0.53 FRET state [3] | calculated distance, 0.67 FRET state [3] | distance between the two fluorophores, 0.86 FRET state [3]
1 | COc1ccc2cc(-c3cc(-c4cc(Cl)cc(Cl)c4)nn3[C@@H](C)c3ccc(C(=O)NCCC(=O)O)cc3)ccc2c1 [MK0893] | 0.91 | 0.75 | 0.09 | 0.19 | 47% | 53% | no effect on the FRET distribution relative to the apo-GCGR | – | – | – | – | – | –
2 | glucagon | 0.86 | 0.67 | 0.14 | 0.11 | 59% | 17% | – | 0.53 | 0.24 | 24% | 50.0 Å | 45.3 Å | 37.7 Å
